Ends that are not written are not given here.
Tests used:
[1] = system: T cell clones specific for TT3; type: cell-based, human
[2] = system: CBA, DBA/2 and C57BL/6 mice; settings: CBA and DBA/2 mice; n between 3 and 40; cited from earlier work
[3] = system: Peripheral blood mononucleate cells (PBMC); type: cell-based, human
lymph node cells = type: cell-based, mouse
[4] = system: C57BL/6, CBA and DBA/2 mice; settings: mouse, in vivo
[5] = system: T cell clones specific for TT3; type: cell-based, human; remark: listed apart in the source
T cell clones = type: cell-based, human

For tetanus toxoid [reference compound], which “proliferation of all the isolated clones in response to antigen presented by autologous APC cells” value [1] is on record?
The value was “proliferated”.

With “H-(Asn-Ala-Asn-Pro)n -OH (H-NANP-OH; also: repeated n times) [(NANP)n]” as the substance, how does the anti-CSP antibody response [2] read?
The anti-CSP antibody response was “not able to induce”.

Which “in vitro response of PBMC of different HLA-typized individuals immunized with the tetanus toxin” value [3] does the source give for FNNFTVSFWLRVPKVSASHLE [TT3] here?
The value was “responded in vitro”.

What about the “share of all the T cells specific for the tetanus toxoid (TT)” value [3] of the same substance?
The value was at most 5%.

And the “proliferative T cell response of lymph node cells” value (lymph node cells)?
The value was “good proliferative T cell response”.

What about the “anti-TT3 antibody count after boosting” value [4] of the same substance?
Its value is “increased”.

And the “anti-TT3 antibody count with IFA compared with CFA” value [4]?
The value was “same values”.

And the “proliferation of all the isolated clones in response to antigen presented by autologous APC cells” value [1]?
Its value is “proliferated”.

And the “Independent restriction (class II MHC alleles able to present the peptide to at least one T cell clone)” value [5]?
The value was “DR5 and DR9 and DR7 and DP2 and DP4 and DP? and DR5JVM/DP4”.

With FNNFTVSFWLRVPK [TT200] as the substance, how does the “recognition of the epitope by restricted T cell clones” value (T cell clones) read?
The value was “recognised by all other DR and DP allele restricted clones”.

Source: patent publication US5196512A (priority 1989, dated 1993)
